Source: ChEMBL document CHEMBL3785005, “Novel triazole hybrids of myrrhanone C, a natural polypodane triterpene: Synthesis, cytotoxic activity and cell based studies” (Eur J Med Chem, 2016)
Calls of active or inactive are those of the source. The rule behind the calls is not given here.

Legend:
[1] = test system: A549; assay: Cell cycle arrest in human A549 cells assessed as accumulation at S phase at 5 uM after 48 hrs by propidium iodide staining based flow cytometry (reference value: 3.51%); assay type: functional
[2] = test system: A549; assay: Induction of apoptosis in human A549 cells assessed as early apoptotic cells at 10 uM after 48 hrs by Annexin V-FITC/propidium iodide staining based flow cytometry (reference value: 5.19%); assay type: functional
[3] = test system: A549; assay: Cytotoxicity against human A549 cells assessed as cell viability after 48 hrs by MTT assay; assay type: functional, cell-based; conditions: A549, 48 h
[4] = test system: A549; assay: Cell cycle arrest in human A549 cells assessed as accumulation at G0/G1 phase at 5 uM after 48 hrs by propidium iodide staining based flow cytometry (reference value: 80.19%); assay type: functional
[5] = test system: A549; assay: Induction of apoptosis in human A549 cells assessed as nuclear fragmentation at 5 to 10 uM after 48 hrs by Hoechst 33258 staining based fluorescence microscopic analysis; assay type: functional, cell-based
[6] = test system: A549; assay: Cell cycle arrest in human A549 cells assessed as accumulation at G2/M phase at 10 uM after 48 hrs by propidium iodide staining based flow cytometry (reference value: 14.07%); assay type: functional
[7] = test system: A549; assay: Induction of apoptosis in human A549 cells assessed as necrotic cells at 5 uM after 48 hrs by Annexin V-FITC/propidium iodide staining based flow cytometry (reference value: 1.68%); assay type: functional
[8] = test system: A549; assay: Induction of apoptosis in human A549 cells assessed as late apoptotic cells at 10 uM after 48 hrs by Annexin V-FITC/propidium iodide staining based flow cytometry (reference value: 5.19%); assay type: functional
[9] = test system: A549; assay: Induction of apoptosis in human A549 cells assessed as viable cells at 10 uM after 48 hrs by Annexin V-FITC/propidium iodide staining based flow cytometry (reference value: 87.93%); assay type: functional; conditions: A549, 48 h, read-out: Activity
[10] = test system: A549; assay: Cell cycle arrest in human A549 cells assessed as accumulation at sub G1 phase at 5 uM after 48 hrs by propidium iodide staining based flow cytometry (reference value: 0.76%); assay type: functional
[11] = test system: A549; assay: Induction of apoptosis in human A549 cells assessed as early apoptotic cells at 5 uM after 48 hrs by Annexin V-FITC/propidium iodide staining based flow cytometry (reference value: 5.19%); assay type: functional
[12] = test system: MCF7; assay: Cytotoxicity against human MCF7 cells assessed as cell viability after 48 hrs by MTT assay; assay type: functional, cell-based; conditions: MCF7, 48 h
[13] = test system: A549; assay: Induction of apoptosis in human A549 cells assessed as presence of apoptotic bodies at 5 to 10 uM after 48 hrs by Hoechst 33258 staining based fluorescence microscopic analysis; assay type: functional, cell-based
[14] = test system: A549; assay: Induction of apoptosis in human A549 cells assessed as mitochondrial membrane potential at 5 uM after 48 hrs by JC-1 staining based flow cytometry (reference value: 92.5%); assay type: functional
[15] = test system: A549; assay: Induction of apoptosis in human A549 cells assessed as necrotic cells at 10 uM after 48 hrs by Annexin V-FITC/propidium iodide staining based flow cytometry (reference value: 1.68%); assay type: functional
[16] = test system: A549; assay: Induction of apoptosis in human A549 cells assessed as viable cells at 5 uM after 48 hrs by Annexin V-FITC/propidium iodide staining based flow cytometry (reference value: 87.93%); assay type: functional; conditions: A549, 48 h, read-out: Activity
[17] = test system: A549; assay: Induction of apoptosis in human A549 cells assessed as cytoplasmic condensation at 5 to 10 uM after 48 hrs by Hoechst 33258 staining based fluorescence microscopic analysis; assay type: functional, cell-based
[18] = test system: HeLa; assay: Cytotoxicity against human HeLa cells assessed as cell viability after 48 hrs by MTT assay; assay type: functional, cell-based
[19] = test system: HepG2; assay: Cytotoxicity against human HepG2 cells assessed as cell viability after 48 hrs by MTT assay; assay type: functional, cell-based; conditions: HepG2, 48 h
[20] = Cytotoxicity against human DU145 cells assessed as cell viability after 48 hrs by MTT assay; assay type: functional, cell-based; conditions: DU-145, 48 h
[21] = test system: A549; assay: Induction of apoptosis in human A549 cells assessed as late apoptotic cells at 5 uM after 48 hrs by Annexin V-FITC/propidium iodide staining based flow cytometry (reference value: 5.19%); assay type: functional
[22] = test system: A549; assay: Cell cycle arrest in human A549 cells assessed as accumulation at G2/M phase at 5 uM after 48 hrs by propidium iodide staining based flow cytometry (reference value: 14.07%); assay type: functional
[23] = test system: A549; assay: Cell cycle arrest in human A549 cells assessed as accumulation at S phase at 10 uM after 48 hrs by propidium iodide staining based flow cytometry (reference value: 3.51%); assay type: functional
[24] = test system: A549; assay: Cell cycle arrest in human A549 cells assessed as accumulation at sub G1 phase at 10 uM after 48 hrs by propidium iodide staining based flow cytometry (reference value: 0.76%); assay type: functional
[25] = test system: A549; assay: Induction of apoptosis in human A549 cells assessed as mitochondrial membrane potential at 10 uM after 48 hrs by JC-1 staining based flow cytometry (reference value: 92.5%); assay type: functional
[26] = test system: A549; assay: Cell cycle arrest in human A549 cells assessed as accumulation at G0/G1 phase at 10 uM after 48 hrs by propidium iodide staining based flow cytometry (reference value: 80.19%); assay type: functional

| Structure (SMILES) | Activity [1] [%] | Activity [2] [%] | IC50 [3] [µM] | Activity [4] [%] | Activity [5] | Activity [6] [%] | Activity [7] [%] | Activity [8] [%] | viability at 10 µM [9] [%] | Activity [10] [%] | Activity [11] [%] | IC50 [12] [µM] | Activity [13] | Activity [14] [%] | Activity [15] [%] | viability at 5 µM [16] [%] | Activity [17] | IC50 [18] [µM] | IC50 [19] [µM] | IC50 [20] [µM] | also measured |
| --- | --- | --- | --- | --- | --- | --- | --- | --- | --- | --- | --- | --- | --- | --- | --- | --- | --- | --- | --- | --- | --- |
| COc1cc(OC)c(-n2cc(CO/N=C3\CC[C@]4(C)[C@@H](CC/C=C(\C)CC/C=C(\C)CCC=C(C)C)[C@](C)(O)CC[C@H]4C3(C)C)nn2)c(OC)c1 | 3 | 5 | 8.12 | 76.47 | Active | 31.32 | 1.3 | 15.83 | 77.4 | 0.73 | 4.18 | 14.7 | Active | 88.7 | 1.8 | 86 | Active | 12.8 | 14.1 | 11.1 | Activity [21]: 8.56%; Activity [22]: 18.52%; Activity [23]: 0.36%; Activity [24]: 1.14%; Activity [25]: 84.1%; Activity [26]: 65.77% |
| CC(C)=CCC/C(C)=C/CC/C(C)=C/CC[C@@H]1[C@@]2(C)CC/C(=N\OCc3cn(-c4ccccc4)nn3)C(C)(C)[C@@H]2CC[C@@]1(C)O | 2.86 | 5.4 | 6.16 | 75.14 | Active | 36.97 | 0.81 | 16.28 | 76.9 | 0.9 | 5.23 | 9.59 | Active | 88.1 | 1.43 | 84.4 | Active | 7.76 | 9.52 | 8.83 | Activity [21]: 9.59%; Activity [22]: 20%; Activity [23]: 0.34%; Activity [24]: 1.02%; Activity [25]: 83.5%; Activity [26]: 60.11% |
